Assay results: PubChem BioAssay (NCI)
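Step 1: Grow cells in 96-well plates. Step 2: Expose to compound for 48 hours at 5 concentrations. Step 3: Interpolate endpoints linearly; if unreached, use highest concentration. TGI marks complete inhibition of growth.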

Experiments:
Experiment in all cases: inhibition of tumour cell growth, NCI panel, 48 h
[1] = tested on: NCI-H522 lung
[2] = tested on: LXFL 529 NSCLC
[3] = tested on: UACC-257 melanoma
[4] = tested on: IGROV1 ovarian
[5] = tested on: SNB-19 CNS
[6] = tested on: SN12C renal
[7] = tested on: HCT-116 colon
[8] = tested on: DLD-1 colon
[9] = tested on: 786-0 renal
[10] = tested on: MALME-3M melanoma
[11] = tested on: OVCAR-3 ovarian
[12] = tested on: OVCAR-4 ovarian
[13] = tested on: KM12 colon
[14] = tested on: DMS 114 small cell lung
[15] = tested on: A498 renal
[16] = tested on: M14 melanoma
[17] = tested on: SK-OV-3 ovarian
[18] = tested on: HCT-15 colon
[19] = tested on: OVCAR-5 ovarian
[20] = tested on: TK-10 renal
[21] = tested on: A549 NSCLC
[22] = tested on: M19-MEL melanoma
[23] = tested on: SK-MEL-5 melanoma
[24] = tested on: EKVX NSCLC
[25] = tested on: XF 498 CNS
[26] = tested on: HT29 colon
[27] = tested on: ACHN renal
[28] = tested on: K-562 leukemia
[29] = tested on: COLO 205 colon
[30] = tested on: MOLT-4 leukemia
[31] = tested on: HOP-92 NSCLC
[32] = tested on: SNB-75 CNS
[33] = tested on: UACC-62 melanoma
[34] = tested on: SF-539 CNS
[35] = tested on: SW-620 colon
[36] = tested on: U251 CNS
[37] = tested on: RXF-631 renal
[38] = tested on: OVCAR-8 ovarian
[39] = tested on: HOP-18 NSCLC
[40] = tested on: UO-31 renal
[41] = tested on: HCC-2998 colon
[42] = tested on: CCRF-CEM leukemia
[43] = tested on: SF-268 CNS
[44] = tested on: CAKI-1 renal
[45] = tested on: NCI-H460 lung
[46] = tested on: RPMI-8226 leukemia
[47] = tested on: SK-MEL-28 melanoma
[48] = tested on: DMS 273 small cell lung
[49] = tested on: SF-295 CNS
[50] = tested on: HOP-62 NSCLC
[51] = tested on: KM20L2 colon
[52] = tested on: NCI-H226 lung
[53] = tested on: SK-MEL-2 melanoma
[54] = tested on: NCI-H23 lung
[55] = tested on: LOX IMVI melanoma
[56] = tested on: SNB-78 CNS
[57] = tested on: HL-60(TB) leukemia

Measured: TGI

O=[N+]([O-])c1ccc(OCCNc2cccc3ccccc23)cc1
> 100 µM: [1] | [2] | [3] | [4] | [5] | [6] | [7] | [8] | [9] | [10] | [11] | [12] | [13] | [14] | [15] | [16] | [17] | [18] | [19] | [20] | [21] | [22] | [23] | [24] | [25] | [26] | [27] | [28] | [29] | [30] | [31] | [32] | [33] | [34] | [35] | [36] | [37] | [38] | [39] | [40] | [41] | [42] | [43] | [44] | [45] | [46] | [47] | [48] | [49] | [50] | [51] | [52] | [53] | [54]

NC(=O)c1csc(C2O[C@@H](COP(=O)(O)OP(=O)(O)OC[C@H]3OC(n4cnc5c(N)ncnc54)[C@H](O)[C@@H]3O)[C@H](O)[C@@H]2O)n1 (stereo partly drawn)
> 100 µM: [1] | [2] | [3] | [4] | [5] | [6] | [8] | [9] | [55] | [10] | [11] | [12] | [13] | [14] | [15] | [16] | [17] | [18] | [19] | [20] | [21] | [23] | [24] | [25] | [26] | [27] | [28] | [29] | [30] | [31] | [32] | [33] | [34] | [35] | [56] | [36] | [38] | [39] | [40] | [41] | [42] | [43] | [44] | [45] | [46] | [47] | [57] | [48] | [49] | [50] | [51] | [52] | [53] | [54]
